We go through 18 molecules from patent US7829560B2, “1,4-disubstituted naphthalenes as inhibitors of P38 MAP kinase” (Arqule, Inc., priority 2004, dated 2010).

The subject of data set [1] is TNFα release from THP-1 cells. The experiment in a line: Inhibition of TNFα release from LPS-stimulated THP-1 cells, ELISA. It counts as cell-based. As to conditions: Homo sapiens, THP-1, THP-1 cells, read-out: [CELL] THP-1, IC50, TNF ALPHA, ELISA. The procedure, abridged: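 TNFα released into supernatant after 18 h of 10 μg/ml LPS stimulation was quantified by ELISA and IC50 taken as 50% reduction by non-linear regression. THP-1 cells (10^6/ml; medium with 10% FBS, serum-free or 1% HSA) saw compound for 30 min at 37 °C beforehand; final DMSO ≤0.5%.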

The target of a further data set is T1, p38α (Homo sapiens, UniProt Q16539).
T1 construct: p38 MAP Kinases are recombinant human full-length proteins with an amino-terminal GST fusion; GST (N); purchased Upstate Biotechnology Inc; host or cells: E. coli
In words: p38 MAP Kinase assay: inhibition of ATF2 phosphorylation, ELISA. It counts as biochemical. The following applies: for IC50: ATF2 phosphorylation, read-out: [ENZ] P38 ALPHA, IC50, ELISA. The procedure, abridged:
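In vitro phosphorylation of ATF2 at Thr69 by recombinant human GST-p38 MAP kinase, read by anti-phospho-ATF2 ELISA at 450 nm. Enzyme and compound pre-incubated 15 min at RT, then 30 min reaction at 37 °C with 40 μM ATP and 1.25 μM ATF2; buffer with or without 1% HSA (Method II or I).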
On the technique in general: In an ELISA, binding on a coated surface is turned into a signal by an enzyme label.

T1 sequence (Q16539 whole entry, the tested form may be a part): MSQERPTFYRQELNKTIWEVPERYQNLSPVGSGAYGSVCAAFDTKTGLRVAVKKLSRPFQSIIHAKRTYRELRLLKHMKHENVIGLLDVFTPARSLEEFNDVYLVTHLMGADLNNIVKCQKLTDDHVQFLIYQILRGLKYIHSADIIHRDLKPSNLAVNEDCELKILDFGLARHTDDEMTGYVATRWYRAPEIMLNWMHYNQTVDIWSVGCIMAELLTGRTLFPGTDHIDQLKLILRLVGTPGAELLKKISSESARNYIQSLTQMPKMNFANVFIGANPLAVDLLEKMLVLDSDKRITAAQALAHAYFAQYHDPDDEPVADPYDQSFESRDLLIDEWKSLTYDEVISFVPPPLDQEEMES

What is called IC50 is the midpoint of a concentration-inhibition curve. For orientation: melting point means the temperature, or range, at which the solid turns liquid. Regarding `O=C(Nc1ccc(Oc2ccnc(N3CCC4(CC3)OCCO4)n2)c2ccccc12)c1cc(F)cc(N2CCOCC2)c1` [Compound B320, N-(4-{[2-(1,4-Dioxa-8-azaspiro[4.5]dec-8-yl)pyrimidin-4-yl]oxy}-1-naphthyl)-3-fluoro-5-morpholin-4-ylbenzamide], the melting point was 115 to 117 °C. For the same molecule, the IC50 in data set [1] stood at 190 nM. For the same molecule, the IC50 on p38α stood at 7.1 nM.

`O=C(Nc1ccc(Oc2ccnc(NCCN3CCCC3)n2)c2ccccc12)c1cc(F)cc(N2CCOCC2)c1` [Compound B338, 3-Fluoro-5-morpholin-4-yl-N-[4-({2-[(2-pyrrolidin-1-ylethyl)amino]pyrimidin-4-yl}oxy)-1-naphthyl]benzamide] yielded a melting point of 95 to 97 °C. Besides, the IC50 in data set [1] was determined as 60.9 nM. The IC50 at p38α was determined as 17.1 nM.

As to `O=C(Nc1ccc(OCCN2CCOCC2)c2ccccc12)c1cccc(N2CCOCC2)c1` [Compound B169, 3-Morpholin-4-yl-N-[4-(2-morpholin-4-yl-ethoxy)-naphthalen-1-yl]-benzamide], the melting point was 90 to 92 °C. Further, the IC50 in data set [1] turned out to be 1330 nM. At p38α (10 uM, substrate ATF2, read-out: [ENZ] P38 ALPHA, PCT INH, ELISA (10 uM;ATF2) (Percent)), the inhibition at 10 µM amounted to 77.5%. In addition, the IC50 at p38α turned out to be 2070 nM.

In turn, `CC(C)(C)OC(=O)NC1CCN(c2nccc(Oc3ccc(NC(=O)c4cc(F)cc(N5CCCCC5)c4)c4ccccc34)n2)CC1` [Compound B410, tert-Butyl{1-[4-({4-[(3-fluoro-5-piperidin-1-ylbenzoyl)amino]-1-naphthyl}oxy)pyrimidin-2-yl]piperidin-4-yl}carbamate] showed a melting point of 211 to 212 °C. In addition, in data set [1], the concentration for half-maximal inhibition (IC50) is over 1000 nM. The half-inhibitory concentration (IC50) at p38α was found to be 90.9 nM.

In turn, `O=C(Nc1ccc(Oc2ccnc(NC3CCC3)n2)c2ccccc12)c1cc(F)cc(N2CCCCC2)c1` [Compound B383, N-(4-{[2-(Cyclobutylamino)pyrimidin-4-yl]oxy}-1-naphthyl)-3-fluoro-5-piperidin-1-ylbenzamide] yielded a melting point of 112 to 114 °C. In addition, the IC50 in data set [1] turned out to be 311 nM. On p38α, the half-maximal inhibitory concentration (IC50) was determined as 11.4 nM.

In turn, `CC1CCN(c2cc(F)cc(C(=O)Nc3ccc(OCCN4CCOCC4)c4ccccc34)c2)CC1` [Compound B184, 3-Fluoro-5-(4-methylpiperidin-1-yl)-N-[4-(2-morpholin-4-ylethoxy)-1-naphthyl]benzamide] had a melting point of 116 to 118 °C. Moreover, the half-inhibitory concentration (IC50) in data set [1] stood at 6990 nM. For the same molecule, the IC50 at p38α came to 1070 nM.

For `CCOC(=O)N1CCC(Nc2nccc(Oc3ccc(NC(=O)c4cc(F)cc(N5CCOCC5)c4)c4ccccc34)n2)CC1` [Compound B341, Ethyl-4-{[4-({4-[(3-fluoro-5-morpholin-4-ylbenzoyl)amino]-1-naphthyl}oxy)pyrimidin-2-yl]amino}piperidine-1-carboxylate], the melting point is 122 to 124 °C. Besides, the IC50 in data set [1] is 590 nM. Moreover, at p38α, the concentration for half-maximal inhibition (IC50) amounted to 10.5 nM.

`CN(C)C1CCN(c2nccc(Oc3ccc(NC(=O)c4cc(F)cc(N5CCOCC5)c4)c4ccccc34)n2)C1` (stereo not shown) [Compound B365, N-[4-({2-[3-(Dimethylamino)pyrrolidin-1-yl]pyrimidin-4-yl}oxy)-1-naphthyl]-3-fluoro-5-morpholin-4-ylbenzamide] yielded a melting point of 106 to 108 °C. Moreover, the half-inhibitory concentration (IC50) in data set [1] turned out to be 56.7 nM. Moreover, the half-inhibitory concentration (IC50) at p38α turned out to be 28 nM.

With `O=C(Nc1ccc(Oc2ccnc(NCC3OCCO3)n2)c2ccccc12)c1cc(F)cc(N2CCOCC2)c1` [Compound B369, N-[4-({2-[(1,3-dioxolan-2-ylmethyl)amino]pyrimidin-4-yl}oxy)-1-naphthyl]-3-fluoro-5-morpholin-4-ylbenzamide], the melting point lay in the range of 122 to 124 °C. Besides, in data set [1], the IC50 was 33.3 nM. Further, the IC50 on p38α came out at 2.9 nM.

With `CN(CC1OCCO1)c1nccc(Oc2ccc(NC(=O)c3cc(F)cc(N4CCOCC4)c3)c3ccccc23)n1` [Compound B349, N-[4-({2-[(1,3-Dioxolan-2-ylmethyl)(methyl)amino]pyrimidin-4-yl}oxy)-1-naphthyl]-3-fluoro-5-morpholin-4-ylbenzamide], the melting point is 111 to 112 °C. The IC50 in data set [1] is 74.7 nM. Moreover, at p38α, the concentration for half-maximal inhibition (IC50) amounted to 18.7 nM.

`COc1ccc(CCOc2ccc(NC(=O)c3cc(F)cc(N4CCOCC4)c3)c3ccccc23)cc1OC` [Compound B189, N-{4-[2-(3,4-Dimethoxyphenyl)ethoxy]-1-naphthyl}-3-fluoro-5-morpholin-4-ylbenzamide]: the melting point was in the range of 73 to 75 °C. For the same molecule, the IC50 in data set [1] is 2610 nM. Further, at p38α, the half-inhibitory concentration (IC50) was 441 nM.

In turn, `CCN1CCN(c2nccc(Oc3ccc(NC(=O)c4cc(F)cc(N5CCOCC5)c4)c4ccccc34)n2)CC1` [Compound B345, N-(4-{[2-(4-Ethylpiperazin-1-yl)pyrimidin-4-yl]oxy}-1-naphthyl)-3-fluoro-5-morpholin-4-ylbenzamide] came in with a melting point of 185 to 186 °C. The 50% inhibitory concentration (IC50) in data set [1] came out at 79.6 nM. Further, the concentration for half-maximal inhibition (IC50) on p38α amounted to 13.3 nM.

Take `O=C(Nc1ccc(Oc2ccnc(NCCN3CCOCC3)n2)c2ccccc12)c1cc(F)cc(N2CCOCC2)c1` [Compound B326, 3-Fluoro-5-morpholin-4-yl-N-[4-({2-[(2-morpholin-4-ylethyl)amino]pyrimidin-4-yl}oxy)-1-naphthyl]benzamide]: the melting point lay in the range of 112 to 114 °C. The 50% inhibitory concentration (IC50) in data set [1] was 76.8 nM. In addition, the IC50 on p38α worked out at 3.1 nM.

In turn, `O=C(Nc1ccc(Oc2ccnc(N3CCC(O)CC3)n2)c2ccccc12)c1cc(F)cc(N2CCOCC2)c1` [Compound B332, 3-Fluoro-N-(4-{[2-(4-hydroxypiperidin-1-yl)pyrimidin-4-yl]oxy}-1-naphthyl)-5-morpholin-4-ylbenzamide] registered a melting point of 106 to 108 °C. Moreover, in data set [1], the IC50 came out at 252 nM. Besides, the 50% inhibitory concentration (IC50) on p38α was 5 nM.

`O=C(Nc1ccc(OCc2ccncc2)c2ccccc12)c1cc(F)cc(OC2CCOCC2)c1` [Compound B229, 3-Fluoro-N-[4-(pyridin-4-ylmethoxy)-1-naphthyl]-5-(tetrahydro-2H-pyran-4-yloxy)benzamide] registered a melting point of 182 to 184 °C. Further, in data set [1], the concentration for half-maximal inhibition (IC50) was found to be 5660 nM. Besides, on p38α, the half-maximal inhibitory concentration (IC50) was 821 nM.

For `CC(C)CNc1nccc(Oc2ccc(NC(=O)c3cc(F)cc(N4CCOCC4)c3)c3ccccc23)n1` [Compound B318, 3-Fluoro-N-(4-{[2-(isobutylamino)pyrimidin-4-yl]oxy}-1-naphthyl)-5-morpholin-4-ylbenzamide], the melting point was 96 to 97 °C. In data set [1], the half-inhibitory concentration (IC50) was 38.3 nM. For the same molecule, the IC50 on p38α stood at 7.2 nM.

Turning to `O=C(Nc1ccc(Oc2ccnc(NC3CCCCC3)n2)c2ccccc12)c1cc(F)cc(N2CCOCC2)c1` [Compound B323, N-(4-{[2-(Cyclohexylamino)pyrimidin-4-yl]oxy}-1-naphthyl)-3-fluoro-5-morpholin-4-ylbenzamide], the melting point is 135 to 136 °C. Besides, the IC50 in data set [1] worked out at 36.1 nM. The IC50 at p38α was 11.9 nM.

For the molecule `O=C1CN(c2nccc(Oc3ccc(NC(=O)c4cc(F)cc(N5CCOCC5)c4)c4ccccc34)n2)CCN1` [Compound B368, 3-Fluoro-5-morpholin-4-yl-N-(4-{[2-(3-oxopiperazin-1-yl)pyrimidin-4-yl]oxy}-1-naphthyl)benzamide], the melting point was in the range of 108 to 110 °C. Also, in data set [1], the concentration for half-maximal inhibition (IC50) is 141 nM. The half-maximal inhibitory concentration (IC50) at p38α was found to be 19.7 nM.
